# “Also recorded” adds a separate entry of the source.
# Assays:
# [1] = tested on: COL17A1; assay: COL17A1 expression in human epidermal keratinocytes by high content imaging (HCS); format: cell-based
# Protocol: The present inventors further searched for substances that induce or maintain the expression of COL17A1. Human epidermal keratinocytes were seeded in 384-well plates, cultured for 48 hours after addition of reagents, immunostained with an anti-COL17A1 antibody and a fluorescently labeled secondary antibody, and then the fluorescence intensity per cell was detected using a high content imaging system (HCS: High Content Screening). In addition to cell counting with DAPI, the expression level of COL17A1 was quantified.
# [2] = tested on: human epidermal keratinocytes; assay: Colony formation assay using human epidermal keratinocytes; format: cell-based
# From the text: To test whether COL17A1-mediated SCD maintains clonal proliferation of epidermal stem cell clones, the present inventors used a colony formation assay, which is an in vitro assay said to be the gold standard for assessing the self-renewal ability of epidermal stem cells, including cells in the tail epidermis.
# [3] = tested on: upper cervical-dorsal skin of aged mice; assay: Irritant skin disorder (dry eczema and alopecia) model induced by 100% ethanol in aged mice; format: in vivo; settings: continuously applied, aged mice (FIG. 20)
# From the text: In the irritant skin disorder (dry eczema and alopecia) model induced by a high concentration of ethanol (100%) in the upper cervical-dorsal skin of aged mice, a substance (apocynin) that promotes the cell competitive ability of epidermal stem cells was continuously applied.
# [4] = tested on: skin damage induced by erlotinib; assay: Improvement of skin damage caused by erlotinib administration, TEWL (Example 10); format: in vivo, C57BL6N mice; settings: 200 μM applied on the back once a day, five times a week; 7 weeks old or 6 months old mice; day 7 / day 12 (FIG. 19)
# Protocol: Female […] mice (7 weeks old or 6 months old) were acclimatized to the experimental environment, and then hair was removed from their back under anesthesia. […] The control non-administered group received the 0.5% methylcellulose solution of the solvent in the same way. The control group applied with the solvent and the group applied with 200 μM apocynin received an aqueous solution of each preparation once a day, five times a week on the back. To the control solvent application group the solvent (50% ethanol/PBS) of apocynin was similarly applied.
smiles,measurement,setting,value
COc1cc(C(C)=O)ccc1O [Apocynin],COL17A1 expression level (control ratio),"[1]; Table 1, human epidermal keratinocytes, 48 hours after addition of reagents, fluorescence intensity per cell",⊚ (one double circle (⊚) represents a 1.2-fold or greater increase)
same,COL17A1 expression / amount of COL17A1 in cultured keratinocytes compared to the control,"[1]; in vitro, HCS (FIG. 15)",significantly increased; also recorded: maintain or induce the COL17A1 expression; also recorded: induce the COL17A1 expression
same,Colony area (control ratio),[2]; Table 1,⊚ (one double circle (⊚) indicates maintenance of 1.0-1.2-fold)
same,Colony number (control ratio),[2]; Table 1,⊚ (one double circle (⊚) indicates maintenance of 1.0-1.2-fold)
same,area of colonies per well,[2]; compared to the control (FIG. 16),significantly increased
same,number of colonies,"[2]; compared to the control, n=3 wells (FIG. 13, FIG. 16)",significantly increased
same,average size of the top five colonies,"[2]; compared to the control, n=3 wells (FIG. 14)",significantly increased
same,colony size,[2]; human epidermal keratinocytes,significantly increased
same,number of colonies with a diameter greater than 2 mm,[2]; n=3 wells (FIG. 13 right),significantly increased
same,skin damage,[3],significantly reduced
same,TEWL under erlotinib administration,[4],significantly decreased
